The results in this text go back to US9902696B2, “1,4-substituted piperidine derivatives” (Cephalon, Inc., priority 2015, dated 2018).

Structures can show the parent of a compound that is named as a salt.

In the assay the target is T1, recombinant human baculovirus-expressed GST-tagged FASN (Homo sapiens, UniProt P49327).
T1 construct: GST
T1 sequence (P49327 whole entry): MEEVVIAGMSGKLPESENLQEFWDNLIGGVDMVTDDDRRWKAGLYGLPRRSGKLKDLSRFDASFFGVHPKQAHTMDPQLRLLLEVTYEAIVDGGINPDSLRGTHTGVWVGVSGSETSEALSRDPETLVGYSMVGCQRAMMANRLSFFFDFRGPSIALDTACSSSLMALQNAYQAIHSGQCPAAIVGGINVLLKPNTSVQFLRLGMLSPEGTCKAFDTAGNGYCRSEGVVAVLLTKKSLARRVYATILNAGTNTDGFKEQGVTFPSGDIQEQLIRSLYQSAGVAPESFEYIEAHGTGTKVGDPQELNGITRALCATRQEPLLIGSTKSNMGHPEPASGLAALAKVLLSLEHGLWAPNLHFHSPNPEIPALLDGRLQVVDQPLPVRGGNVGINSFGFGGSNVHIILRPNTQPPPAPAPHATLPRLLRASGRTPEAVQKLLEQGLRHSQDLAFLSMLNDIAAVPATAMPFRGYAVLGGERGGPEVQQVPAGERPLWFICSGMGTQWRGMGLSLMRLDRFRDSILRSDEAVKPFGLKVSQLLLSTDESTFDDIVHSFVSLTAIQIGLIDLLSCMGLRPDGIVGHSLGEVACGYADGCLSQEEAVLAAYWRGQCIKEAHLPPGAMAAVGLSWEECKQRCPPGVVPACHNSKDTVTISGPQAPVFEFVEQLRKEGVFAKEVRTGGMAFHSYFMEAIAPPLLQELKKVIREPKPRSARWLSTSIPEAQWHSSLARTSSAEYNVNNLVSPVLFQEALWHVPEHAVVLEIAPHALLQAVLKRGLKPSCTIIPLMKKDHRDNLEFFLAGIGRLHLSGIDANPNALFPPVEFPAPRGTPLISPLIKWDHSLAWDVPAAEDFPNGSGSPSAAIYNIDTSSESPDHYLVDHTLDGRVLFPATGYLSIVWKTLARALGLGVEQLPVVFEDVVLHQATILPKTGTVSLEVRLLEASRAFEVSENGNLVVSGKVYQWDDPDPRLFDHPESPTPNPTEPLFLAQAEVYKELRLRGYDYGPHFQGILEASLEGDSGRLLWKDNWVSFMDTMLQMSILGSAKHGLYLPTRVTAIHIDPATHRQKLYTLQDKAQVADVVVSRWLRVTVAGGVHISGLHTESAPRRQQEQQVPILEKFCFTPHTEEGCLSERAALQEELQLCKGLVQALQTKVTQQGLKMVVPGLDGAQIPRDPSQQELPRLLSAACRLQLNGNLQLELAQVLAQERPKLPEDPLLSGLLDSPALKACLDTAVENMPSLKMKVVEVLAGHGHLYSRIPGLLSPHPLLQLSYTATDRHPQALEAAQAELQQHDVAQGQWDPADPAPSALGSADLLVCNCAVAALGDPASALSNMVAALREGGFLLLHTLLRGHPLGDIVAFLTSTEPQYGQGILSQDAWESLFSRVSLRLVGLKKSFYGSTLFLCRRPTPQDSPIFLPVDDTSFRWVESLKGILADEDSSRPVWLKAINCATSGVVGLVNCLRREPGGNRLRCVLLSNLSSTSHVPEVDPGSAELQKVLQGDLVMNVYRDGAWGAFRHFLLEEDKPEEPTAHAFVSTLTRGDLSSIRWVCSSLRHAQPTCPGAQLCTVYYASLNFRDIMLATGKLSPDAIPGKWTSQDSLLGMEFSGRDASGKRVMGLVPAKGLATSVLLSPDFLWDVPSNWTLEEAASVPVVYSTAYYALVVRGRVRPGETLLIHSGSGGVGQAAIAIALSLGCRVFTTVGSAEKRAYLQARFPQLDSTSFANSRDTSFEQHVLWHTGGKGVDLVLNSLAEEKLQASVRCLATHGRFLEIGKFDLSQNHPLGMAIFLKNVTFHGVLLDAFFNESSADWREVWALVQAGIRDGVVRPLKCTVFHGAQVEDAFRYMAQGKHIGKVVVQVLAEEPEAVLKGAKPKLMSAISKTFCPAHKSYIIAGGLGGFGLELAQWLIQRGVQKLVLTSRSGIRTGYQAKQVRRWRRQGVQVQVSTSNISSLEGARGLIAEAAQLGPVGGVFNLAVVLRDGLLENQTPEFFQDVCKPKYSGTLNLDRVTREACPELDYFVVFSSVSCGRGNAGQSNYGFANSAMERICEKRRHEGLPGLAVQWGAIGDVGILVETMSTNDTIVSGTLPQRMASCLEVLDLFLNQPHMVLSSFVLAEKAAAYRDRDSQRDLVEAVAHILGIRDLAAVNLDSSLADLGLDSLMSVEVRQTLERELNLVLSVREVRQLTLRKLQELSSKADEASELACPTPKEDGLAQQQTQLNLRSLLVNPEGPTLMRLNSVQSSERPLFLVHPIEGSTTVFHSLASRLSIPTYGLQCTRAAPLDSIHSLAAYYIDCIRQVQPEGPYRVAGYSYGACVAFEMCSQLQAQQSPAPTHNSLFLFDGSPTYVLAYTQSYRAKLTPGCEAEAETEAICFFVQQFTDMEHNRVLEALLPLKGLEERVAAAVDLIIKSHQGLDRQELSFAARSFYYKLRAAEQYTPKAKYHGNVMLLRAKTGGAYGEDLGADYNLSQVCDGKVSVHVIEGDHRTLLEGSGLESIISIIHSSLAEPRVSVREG
The assay is described as follows: FASN enzyme activity assay, fluorescence-based detection of CoA with CPM. Format: biochemical. Particulars: 5 nM FASN, 150 μM NADPH, 10 μM acetyl-CoA, 25 μM malonyl-CoA, 90 minutes incubation; read-out: IC50 data for Compounds of Formulae I-V/V(a): Activity. In short, it runs like this:
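Human GST-tagged FASN, baculovirus-expressed (5 nM), in 50 mM HEPES pH 7.5 with 150 μM NADPH, 10 μM acetyl-CoA, 25 μM malonyl-CoA, 0.5% DMSO; malonyl-CoA-started, 90 min. Released CoA detected with CPM (50 μM dilution), 30 min, fluorescence ex 390/em 530. IC50 from variable-slope sigmoidal fit of % inhibition versus log concentration.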
For `CN1CCN(c2c(-c3ccc(OC4CCN(C(=O)[C@H]5CCCO5)CC4)cc3)cnc3ccccc23)CC1` [Example 240, (4-{4-[4-(4-Methylpiperazin-1-yl)-quinolin-3-yl]-phenoxy}-piperidin-1-yl)-(R)-tetrahydrofuran-2-yl-methanone], the IC50 fell in the range of 1000 to 10000 nM.

Turning to `O=C1OCCN1C(=O)N1CCC(Oc2ccc(-c3cnc4ccccc4c3)cc2)CC1` [Example 241, 3-[4-(4-Quinolin-3-yl-phenoxy)-piperidine-1-carbonyl]-oxazolidin-2-one], the IC50 was in the range of 1000 to 10000 nM. In the case of `CC(=O)CC(=O)N1CCC(Oc2ccc(-c3cnc4ccccc4c3)cc2)CC1` [Example 242, 1-[4-(4-Quinolin-3-yl-phenoxy)-piperidin-1-yl]-butane-1,3-dione] it was 1000 to 10000 nM; in that of `O=C1CCCN1C(=O)N1CCC(Oc2ccc(-c3cnc4ccccc4c3)cc2)CC1` [Example 243, 1-[4-(4-Quinolin-3-yl-phenoxy)-piperidine-1-carbonyl]-pyrrolidin-2-one], 1000 to 10000 nM. With `N#Cc1ccc(-c2ccc(OC3CCN(C(=O)[C@H]4CCCO4)CC3)cc2)cc1` [Example 244, 4′-[1-((R)-Tetrahydrofuran-2-carbonyl)-piperidin-4-yloxy]-biphenyl-4-carbonitrile], the IC50 was 1 to 99 nM. The same measure for `CCC(=O)N1CCC(Oc2ccc(-c3cc4ccccc4o3)cc2)CC1` [Example 245, 1-[4-(4-Benzofuran-2-yl-phenoxy)-piperidin-1-yl]-propan-1-one]: 100 to 999 nM. In the case of `CCC(=O)N1CCC(Oc2ccc(-c3c[nH]c4ccccc34)cc2)CC1` [Example 246, 1-{4-[4-(1H-Indol-3-yl)-phenoxy]-piperidin-1-yl}-propan-1-one] it was 1000 to 10000 nM; in that of `CCC(=O)N1CCC(Oc2ccc(-c3ccc4sccc4c3)cc2)CC1` [Example 247, 1-[4-(4-Benzo[b]thiophen-5-yl-phenoxy)-piperidin-1-yl]-propan-1-one], 100 to 999 nM. In the case of `CCC(=O)N1CCC(Oc2ccc(-c3n[nH]c4ccccc34)cc2)CC1` [Example 248, 1-{4-[4-(1H-Indazol-3-yl)-phenoxy]-piperidin-1-yl}-propan-1-one] it was 100 to 999 nM; in that of `CCC(=O)N1CCC(Oc2ccc(-c3ccc4cnn(C)c4c3)cc2)CC1` [Example 249, 1-{4-[4-(1-Methyl-1H-indazol-6-yl)-phenoxy]-piperidin-1-yl}-propan-1-one, TFA salt], 100 to 999 nM; in that of `CCC(=O)N1CCC(Oc2ccc(-c3cnc4sccc4c3)cc2)CC1` [Example 250, 1-[4-(4-Thieno[2,3-b]pyridin-5-yl-phenoxy)-piperidin-1-yl]-propan-1-one, TFA salt], 1 to 99 nM.

`CCC(=O)N1CCC(Oc2ccc(-c3ccc4cn(C)nc4c3)cc2)CC1` [Example 251, 1-{4-[4-(2-Methyl-2H-indazol-6-yl)-phenoxy]-piperidin-1-yl}-propan-1-one]: the IC50 lay in the range of 100 to 999 nM. On to `CCC(=O)N1CCC(Oc2ccc(-c3cnc4ncccc4c3)cc2)CC1` [Example 252, 1-[4-(4-[1,8]Naphthyridin-3-yl-phenoxy)-piperidin-1-yl]-propan-1-one, TFA salt], for which the IC50 is 100 to 999 nM. The same measure for `CCC(=O)N1CCC(Oc2ccc(-c3ccc4ccc(C)nc4c3)cc2)CC1` [Example 253, 1-{4-[4-(2-Methylquinolin-7-yl)-phenoxy]-piperidin-1-yl}-propan-1-one, TFA salt]: 1000 to 10000 nM; for `O=C([C@H]1CCCO1)N1CCC(Oc2ccc(-c3cnc4sccc4c3)cc2)CC1` [Example 254, (R)-Tetrahydrofuran-2-yl-[4-(4-thieno[2,3-b]pyridin-5-yl-phenoxy)-piperidin-1-yl]-methanone, TFA salt]: 1 to 99 nM; for `O=C(C1CC1)N1CCC(Oc2ccc(-c3cnc4sccc4c3)cc2)CC1` [Example 255, Cyclopropyl-[4-(4-thieno[2,3-b]pyridin-5-yl-phenoxy)-piperidin-1-yl]-methanone, TFA salt]: 1 to 99 nM.

Turning to `CCC(=O)N1CCC(Oc2ccc(-c3ccc4nccn4c3)cc2)CC1` [Example 256, 1-[4-(4-Imidazo[1,2-a]pyridin-6-yl-phenoxy)-piperidin-1-yl]-propan-1-one, TFA salt], the IC50 fell in the range of 100 to 999 nM.

In the case of `O=C([C@H]1CCCO1)N1CCC(Oc2ccc(-c3ccc4c(Cl)ccnc4c3)cc2)CC1` [Example 257, {4-[4-(4-Chloroquinolin-7-yl)-phenoxy]-piperidin-1-yl}-(R)-tetrahydro-furan-2-yl-methanone, TFA salt], the IC50 is 1 to 99 nM.

Regarding `O=C(C1CC1)N1CCC(Oc2ccc(-c3ccc4c(Cl)ccnc4c3)cc2)CC1` [Example 258, {4-[4-(4-Chloroquinolin-7-yl)-phenoxy]-piperidin-1-yl}-cyclopropyl-methanone, TFA salt], the IC50 was in the range of 100 to 999 nM. The same measure for `CCC(=O)N1CCC(Oc2ccc(-c3ccc4c(Cl)ccnc4c3)cc2)CC1` [Example 259, 1-{4-[4-(4-Chloroquinolin-7-yl)-phenoxy]-piperidin-1-yl}-propan-1-one, TFA salt]: 100 to 999 nM; for `O=C([C@H]1CCCO1)N1CCC(Oc2ccc(-c3ccc4cccnc4c3Cl)cc2)CC1` [Example 260, {4-[4-(8-Chloro-quinolin-7-yl)-phenoxy]-piperidin-1-yl}-(R)-tetrahydro-furan-2-yl-methanone, TFA salt]: 1 to 99 nM; for `CCC(=O)N1CCC(Oc2ccc(-c3ccc4cccnc4c3Cl)cc2)CC1` [Example 261, 1-{4-[4-(8-Chloroquinolin-7-yl)-phenoxy]-piperidin-1-yl}-propan-1-one]: 1 to 99 nM.

Consider `COc1ccc2cc(-c3ccc(OC4CCN(C(=O)[C@H]5CCCO5)CC4)cc3)cnc2c1` [Example 262, {4-[4-(7-Methoxyquinolin-3-yl)-phenoxy]-piperidin-1-yl}-(R)-tetrahydro-furan-2-yl-methanone], for which the IC50 was 1 to 99 nM. The same measure for `O=C([C@H]1CCCO1)N1CCC(Oc2ccc(-c3cnc4ccsc4c3)cc2)CC1` [Example 263, (R)-Tetrahydrofuran-2-yl-[4-(4-thieno[3,2-b]pyridin-6-yl-phenoxy)-piperidin-1-yl]-methanone, TFA salt]: 1 to 99 nM; for `CCC(=O)N1CCC(Oc2ccc(-c3cnc4ccsc4c3)cc2)CC1` [Example 264, 1-[4-(4-Thieno[3,2-b]pyridin-6-yl-phenoxy)-piperidin-1-yl]-propan-1-one, TFA salt]: 1000 to 10000 nM; for `O=C([C@H]1CCCO1)N1CCC(Oc2ccc(-c3ccc4cc(Cl)cnc4c3)cc2)CC1` [Example 265, {4-[4-(3-Chloroquinolin-7-yl)-phenoxy]-piperidin-1-yl}-(R)-tetrahydro-furan-2-yl-methanone, TFA salt]: 1 to 99 nM. In the case of `CCC(=O)N1CCC(Oc2ccc(-c3ccc4cc(Cl)cnc4c3)cc2)CC1` [Example 266, 1-{4-[4-(3-Chloroquinolin-7-yl)-phenoxy]-piperidin-1-yl}-propan-1-one, TFA salt] it was 100 to 999 nM; in that of `O=C([C@H]1CCCO1)N1CCC(Oc2ccc(-c3ccc4scnc4c3)cc2)CC1` [Example 267, [4-(4-Benzothiazol-5-yl-phenoxy)-piperidin-1-yl]-(R)-tetrahydrofuran-2-yl-methanone, TFA salt], 1 to 99 nM.
